Source: ChEMBL document CHEMBL1124762, “Potential antitumor agents. 60. Relationships between structure and in vivo colon 38 activity for 5-substituted 9-oxoxanthene-4-acetic acids” (1990)

What was measured:
Type in all cases: functional, Mus musculus
MC-38 [1] = experiment: Optimal dose 24 hr after intraperitoneal administration against C38 colon tumor cells in mice.
MC-38 [2] = experiment: Percent necrosis activity against subcutaneous C38 colon tumor cells in vivo; range is 50-90%
MC-38 [3] = experiment: Percent necrosis activity against subcutaneous C38 colon tumor cells in vivo; parameters: concentration or dose not given beside the values

| Compound | OD (MC-38 [1]) | Activity (MC-38 [2]) | Activity (MC-38 [3]) |
| --- | --- | --- | --- |
| O=C(O)Cc1cccc2c(=O)c3cccc(F)c3oc12 | 330 mg/kg |  |  |
| O=C(O)Cc1cccc2c(=O)c3cccc(CC(=O)O)c3oc12 | 330 mg/kg |  |  |
| CCCCOc1cccc2c(=O)c3cccc(CC(=O)O)c3oc12 | 220 mg/kg | 90% |  |
| CC(=O)Nc1cccc2c(=O)c3cccc(CC(=O)O)c3oc12 | 330 mg/kg |  |  |
| Cc1cccc2c(=O)c3cccc(CC(=O)O)c3oc12 | 45 mg/kg |  | >90% |
| CCc1cccc2c(=O)c3cccc(CC(=O)O)c3oc12 | 100 mg/kg |  | >90% |
| O=C(O)Cc1cccc2c(=O)c3cccc(Cl)c3oc12 | 150 mg/kg |  | >90% |
| Nc1cccc2c(=O)c3cccc(CC(=O)O)c3oc12 | 1125 mg/kg | 90% |  |
| O=C(O)Cc1cccc2c(=O)c3ccccc3oc12 | 220 mg/kg |  | >90% |
| CCCOc1cccc2c(=O)c3cccc(CC(=O)O)c3oc12 | 150 mg/kg | 90% |  |
| O=C(O)Cc1cccc2c(=O)c3cccc([N+](=O)[O-])c3oc12 | 330 mg/kg | 90% |  |
| CCOc1cccc2c(=O)c3cccc(CC(=O)O)c3oc12 | 330 mg/kg |  | >90% |
| O=C(O)Cc1cccc2c(=O)c3cccc(-c4ccccc4)c3oc12 | 750 mg/kg |  |  |
| O=C(O)Cc1cccc2c(=O)c3cccc(O)c3oc12 | 330 mg/kg |  |  |
| COc1cccc2c(=O)c3cccc(CC(=O)O)c3oc12 | 150 mg/kg | 90% |  |
| O=C(O)Cc1cccc2c(=O)c3cccc(Br)c3oc12 | 100 mg/kg |  |  |
| O=C(O)Cc1cccc2c(=O)c3cccnc3oc12 | 750 mg/kg |  |  |
| O=C(O)Cc1cccc2c(=O)c3cccc(C(F)(F)F)c3oc12 | 220 mg/kg | 90% |  |
